The text below walks through data of patent US20090176841A1, “NOVEL 6-5 SYSTEM BICYCLIC HE[…] ITS PHAR[…]” (Sanwa Kagaku Kenkyusho Co., Ltd., priority 2006, published 2009).

One assay has as its target T1, recombinant human TRα (Homo sapiens, UniProt P10827).
T1 sequence (P10827 190-410 isoform P10827-2): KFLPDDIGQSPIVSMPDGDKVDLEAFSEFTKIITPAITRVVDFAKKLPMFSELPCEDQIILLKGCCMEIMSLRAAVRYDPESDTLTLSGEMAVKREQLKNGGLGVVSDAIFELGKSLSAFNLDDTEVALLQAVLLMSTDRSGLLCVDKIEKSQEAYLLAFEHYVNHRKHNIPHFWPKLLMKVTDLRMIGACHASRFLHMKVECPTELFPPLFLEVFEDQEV
As to the kind of experiment: biochemical. The following applies: TR[…] (IC50, nM), displacement of 125I-T3 (0.16 nM). The text has this: (§1) Thyroid Hormone Receptor Binding Test
(§2) (1) Preparation of Fused Protein Having Ligand Binding Region of Thyroid Hormone Receptor
(§3) Human TRα and human TRβ ligand binding domains were expressed in Escherichia coli as a fused protein (recombinant human TRα or recombinant human TRβ) having TRα and TRβ ligand binding domains at a C-terminus of His-Patch Thioredoxin using the His-Patch Thioredoxin fusing protein expressing system (Invitrogen).
(§4) A nucleotide sequence of a region corresponding to the fused protein was confirmed by DNA sequence analysis.
(§5) Escherichia coli by which the fused protein had been subjected to expression inducement were collected by a centrifugation method, and ground using ultrasound to prepare a ground cell liquid containing the fused protein. The ground cell liquid was centrifuged at 15000 rpm for about 30 minutes, and a solution containing the fused protein from the supernatant using a nickel chelating column was obtained. An NAP-10 column was replaced with a binding solution (20 mM, Tris-HCl, 0.15 M NaCl, 8% Glycerol, 0.1% BSA, 1 mM EDTA, 10 mM 2-melcaptethanol). The resulting binding solution containing the fused protein was frozen and stored at −70° C. or lower.
(§6) (2) Binding Affinity for Thyroid Hormone Receptor
(§7) This binding solution (60 μL) was added to all wells of a 96-well plate (MILLIPORE MultiScreen-HV, Cat. No. MANVN4550, Lot. No. F4SN86613). […] 80 μL of SephadexG25 was added to each well of MultiScreen-HV (MILLIPORE, Cat. No. MANVN4550, Lot. No. F4SN86613), the binding solution was added to sufficiently swell, and this was centrifuged at 600×g for 1 minute to prepare a column of SephadexG25. […] Again, 25 μL untreated binding solution was overlaid on the SephadexG25 column, and this was immediately centrifuged at 600×g for 1 minute. […] As an amount of recombinant human TRα or recombinant human TRβ used in the present test, an amount by which proper radioactivity is obtained in a range where an addition amount of the receptor and an amount of the complex in the above test system, was used.
(§8) This was divided by the total complex amount to calculate a binding rate as the following equation:
(§9) Binding rate=remaining complex amount/total complex amount
(Displacement assays read how much labelled ligand stays bound in the presence of the test substance.)

A further assay has as its target T2, recombinant human TRβ (Homo sapiens, UniProt P10828).
T2 sequence (P10828 244-461): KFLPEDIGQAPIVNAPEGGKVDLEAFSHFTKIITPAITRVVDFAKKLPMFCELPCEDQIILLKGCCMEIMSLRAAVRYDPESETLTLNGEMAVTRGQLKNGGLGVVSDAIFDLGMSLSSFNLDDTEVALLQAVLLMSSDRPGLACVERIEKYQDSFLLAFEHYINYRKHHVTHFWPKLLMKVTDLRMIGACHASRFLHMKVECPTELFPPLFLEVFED
As to the kind of experiment: biochemical. The note with it: TR[…] (IC50, nM), displacement of 125I-T3 (0.16 nM).
Description: as §1, §2, §3, §4, §5, §6, §7, §8, §9

As for `CC(C)c1cc(Cn2ccc3c(NC(=O)CC(=O)O)cc(Br)cc32)ccc1O` [Example 77], the IC50 on recombinant human TRα was more than 10000 nM; on recombinant human TRβ it was 570 nM.
In the case of `CCCc1cc(Cn2c(C)cc3c(NC(=O)CC(=O)O)ccc(C)c32)ccc1O` [Example 117], the IC50 at recombinant human TRα was 640 nM; on recombinant human TRβ it was 36 nM.
As to `Cc1ccc(NC(=O)C(=O)O)c2ccn(Cc3ccc(O)c(C(C)C)c3)c12` [Example 79], the IC50 on recombinant human TRα is 5200 nM; at recombinant human TRβ it was 130 nM.
The corresponding values for `Cc1cc2c(OCC(=O)O)cccc2n1Cc1ccc(O)c(C(C)C)c1` [Example 74] are 2700 nM and 200 nM.
In the case of `CCc1cc2c(NC(=O)Cc3nnn[nH]3)cccc2n1Cc1ccc(O)c(C(C)C)c1` [Example 41], the IC50 at recombinant human TRα was more than 10000 nM; at recombinant human TRβ, 650 nM.
`Cc1cc2c(NC(=O)C(=O)O)cccc2n1Cc1ccc(O)c(C(C)C)c1` [Example 72]: the IC50 on recombinant human TRα was found to be 230 nM; on recombinant human TRβ, 40 nM.
In the case of `CCOC(=O)CC(=O)Nc1ccc(C)c2c1cc(C)n2Cc1ccc(O)c(C(O)c2ccc(F)cc2)c1` (stereo not shown) [Example 57, Ethyl N-(1-{3-[(4-fluorophenyl)hydroxymethyl]-4-hydroxybenzyl}-2,7-dimethyl-1H-indol-4-yl)malonamate], the values for the IC50 on recombinant human TRα and on recombinant human TRβ were 3800 nM and 24 nM, respectively.
For `CCCc1cc(Cn2c(C)cc3c(NC(=O)C(=O)O)ccc(C)c32)ccc1O` [Example 116] the same measures were 52 nM and 9.2 nM.
For `CCC(C)c1cc(Cn2c(C)cc3c(NC(=O)CC(=O)O)ccc(C)c32)ccc1O` (stereo not shown) [Example 123], the IC50 came out at 170 nM on recombinant human TRα and 9.4 nM at recombinant human TRβ.
The corresponding values for `Cc1ccc(NC(=O)C(C)C(=O)O)c2cc(C)n(Cc3ccc(O)c(C(C)C)c3)c12` (stereo not shown) [Example 89] are 870 nM and 120 nM.
For `Cc1cc(Cn2ccc3c(NC(=O)C(=O)O)ccc(C)c32)cc(C)c1O` [Example 103] the same measures were 3200 nM and 860 nM.

The term IC50 denotes the point on the concentration scale where inhibition reaches its midpoint.
